Measured values published in US20040127475A1, “Apparatus and method for delivering compounds to a living organism” (Estrogen Vascular Technology, LLC, priority 1999, published 2004).

Tested on: porcine coronary arteries
Experiment: 17B-estradiol eluting stents in the pig model of instent restenosis, histomorphometric analysis at 30 days
Assay type: in vivo
Details: pre-clinical work, same stent, dose and loading process as Example 3
Source text: In another example, low and high dose 17B-estradiol eluting stents were compared with control stents in a randomized fashion in 18 porcine coronary arteries. Each artery of six pigs were randomly stented with either a control, low-dose or high-dose 17-estradiol eluting stent. All animals were sacrificed at 30 days for histomorphometric analysis.
The experiment and animal care conformed to National Institutes of Health and American Heart Association guidelines for the care and use of animals and were approved by the Institutional Animal Care and Use Committee at the Washington Hospital Center. Six domestic juvenile swine weighing 35-45 kg were used. […] Heart rate, blood pressure and electrocardiography were monitored throughout the procedure. […]
Coronary angiography was performed after intracoronary nitroglycerin (200 μg) administration and recorded on cine film (Phillips Cardiodiagnost; Shelton, Conn.). […]
The histopathologist was blinded to the stent types in each artery. […] The vessel injury score was determined by the method described by Kornowski et al. The scoring of endothelialization is based on percent of intimal surface covered by endothelial cells. […]
Data (mean±standard deviation) were analyzed to determine differences between treatment groups using an ANOVA with a post-hoc Bonferroni analysis. […]

C[C@]12CC[C@@H]3c4ccc(O)cc4CC[C@H]3[C@@H]1CC[C@@H]2O [17β-estradiol, 17β-Estradiol]
reduction in in-stent neo-intimal formation: 40%
